In patent US7538072B2, “Stem/leaf desiccant” (Sumitomo Chemical Company, Limited, priority 2001, dated 2009):

Columns and labels:
[1] = test system: potato plants; test: Field test of desiccant effect on potato plants (foliar spray before harvest); type: in vivo; settings: application amount 10 g/ha; emulsifiable concentrate diluted with water containing 1% (v/v) crop oil concentrate, sprayed at the time of foliage turning yellow; examined 14 day after treatment; average of 3 sections
From the text: Seed potatoes were planted on a field and grown. At the time of the foliage turning yellow, 2.5 parts of each of compounds a-5 and a-6, 10 parts of Sorpol 3890 (Toho Chemical Industry Co., Ltd.), and 87.5 parts of SOLVESSO 200 (Exxon Mobile Chemical Company) were well mixed to give an emulsifiable concentrate for each compound, diluted at a prescribed dose with water containing 1% (v/v) crop oil concentrate (COC), and the dilution was uniformly sprayed to the plants. One section of the treated field are 2.1×15.2 m in area, and the potato plants on 14 day after the treatment were examined for the desiccant effect. In the table, the desiccation effect was evaluated with following criteria.
1: The desiccated area of foliage is 0 to 29%
2: The desiccated area of foliage is 30 to 69%
3: The desiccated area of foliage is 70 to 89%
4: The desiccated area of foliage is 90 to 99%
5: The desiccated area of foliage is 100%
The treatment was done in 3 sections, the result was indicated with an average of the 3 sections.

SMILES	Desiccation effect [1]	melting point
COC(=O)COc1ncccc1Oc1cc(-n2c(=O)cc(C(F)(F)F)n(C)c2=O)c(F)cc1Cl [Compound a-6, methyl [3-{2-chloro-4-fluoro-5-[3-methyl-2,6-dioxo-4-(trifluoromethyl)-1,2,3,6-tetrahydropyrimidin-1-yl]phenoxy}-2-pyridyloxy]acetate]	5 (The desiccated area of foliage is 100%)	52.2 °C
COC(=O)COc1ccccc1Oc1cc(-n2c(=O)cc(C(F)(F)F)n(C)c2=O)c(F)cc1Cl [Compound a-5, methyl [2-{2-chloro-4-fluoro-5-[3-methyl-2,6-dioxo-4-(trifluoromethyl)-1,2,3,6-tetrahydropyrimidin-1-yl]phenoxy}phenoxy]acetate]	5 (The desiccated area of foliage is 100%)	
